Like-named read-outs stand apart in the source and are kept apart here.
Assays:
[1] = clinical; conditions: human, plasma, po, 0.25 mg
Method: (§1) An open-label, single-dose and multiple-dose, two-period, two-treatment single-sequence drug-drug interaction study was conducted. All subjects received Treatment A during Period 1 and Treatment B during Period 2.
(§2) Samples were stored in polypropylene tubes and kept frozen at approximately −20° C. prior to analysis. A 150-μL matrix aliquot was fortified with 20 μL of 40.0 ng/mL internal standard working solution. Analytes were isolated using an Isolute SLE+ (200-mg) supported liquid extraction 96-well plate and eluted with 800 μL of methylene chloride. The eluate was evaporated under a nitrogen stream at approximately 45° C., and the remaining residue was reconstituted with 250 μL of 90:10:40:0.7 water/methanol/acetonitrile/1.0 M ammonium acetate, v/v/v/v. The final extract was analyzed via HPLC with column-switching and MS/MS detection using positive ion electrospray. Extracts were analyzed by HPLC MS/MS using positive ion electrospray.

[2] = for Tmax, median: healthy subjects, 18
Method: as §1, §2

[3] = biological target: β3-AR (Homo sapiens, UniProt P13945); conditions: cell based in vitro assays; cited from earlier work
[4] = system: cytochrome P450; conditions: cited from earlier work

Sequence of β3-AR (P13945 whole entry): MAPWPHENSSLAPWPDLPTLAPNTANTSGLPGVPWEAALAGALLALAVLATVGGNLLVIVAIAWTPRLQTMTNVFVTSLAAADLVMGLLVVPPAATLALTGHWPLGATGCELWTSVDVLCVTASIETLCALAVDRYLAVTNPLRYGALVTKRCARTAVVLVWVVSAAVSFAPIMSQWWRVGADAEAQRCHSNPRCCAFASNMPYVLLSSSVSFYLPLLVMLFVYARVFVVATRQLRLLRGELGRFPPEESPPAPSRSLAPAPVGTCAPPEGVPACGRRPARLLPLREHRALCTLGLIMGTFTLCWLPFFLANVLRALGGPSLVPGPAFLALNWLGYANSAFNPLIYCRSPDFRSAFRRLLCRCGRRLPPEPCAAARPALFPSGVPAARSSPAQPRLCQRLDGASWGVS

SMILES	AUC(0-inf) [1]	Cmax [1]	half-life [1]	Tmax, median ([2]; Digoxin 0.25 mg × 1 dose with vibegron (150 mg × 1 dose + 100 mg × 5 doses))	Tmax, median ([2]; Digoxin alone, 0.25 mg single dose oral tablet)	change of half-life (T1/2) ([2]; group receiving digoxin+vibegron compared to group receiving digoxin alone)	selectivity for activation of β3-AR over β2-AR and β1-AR [3]	inhibitor of major enzymes produced from the cytochrome P450 genes [4]
C[C@H]1O[C@@H](O[C@H]2[C@@H](O)C[C@H](O[C@H]3[C@@H](O)C[C@H](O[C@H]4CC[C@@]5(C)[C@H](CC[C@@H]6[C@@H]5C[C@@H](O)[C@]5(C)[C@@H](C7=CC(=O)OC7)CC[C@]65O)C4)O[C@@H]3C)O[C@@H]2C)C[C@H](O)[C@@H]1O [Digoxin]	17.2 ng·h/mL	1.24 ng/mL	36.8 h	1.00	1.00	increase		
O=C(Nc1ccc(C[C@@H]2CC[C@H]([C@H](O)c3ccccc3)N2)cc1)[C@@H]1CCc2nccc(=O)n21 [Vibegron, (6S)—N-[4-[[(2S,5R)-5-[(R)-hydroxy(phenyl)methyl]pyrrolidin-2-yl]methyl]phenyl]-4-oxo-7,8-dihydro-6H-pyrrolo[1,2-a]pyrimidine-6-carboxamide]							> 9,000 fold	not an inhibitor

Reference: patent US20240050457A1 (UROVANT SCIENCES GMBH, priority 2020, published 2024)
